According to patent US20230271142A1, “METHODS OF PREPARING SOLID PARTICULATE MATERIALS” (MICROPORE TECHNOLOGIES LIMITED, priority 2020, published 2023):

Assay: Particle size distribution of atorvastatin particles produced via LDC (laser diffraction)
Assay type: physicochemical
Protocol: 0.6 g of Atorvastatin was dissolved in 10 ml methanol in a beaker at room temperature to make up the organic phase. 0.5% HPMC (Mn 10,000) in DI water was used as the aqueous phase. The LDC was configured with a membrane with 10 μm pores, spaced 200 μm apart in a square grid, in a ring. The stirrer speed was set at […] (1750 rpm), and the organic phase injection rate set at 10 ml/min. The line was primed with organic phase and the CP was poured into the stirred cell. Addition was started and ended when 3 ml of DP was injected. The solution was left to stir until precipitation was visible. The crystals were analyzed via microscopy and Laser Diffraction (Beckmann Coulter LS-230).

[1] = 10 μm pores, methanol solution into 0.5% HPMC water

CC(C)c1c(C(=O)Nc2ccccc2)c(-c2ccccc2)c(-c2ccc(F)cc2)n1CC[C@@H](O)C[C@@H](O)CC(=O)O [Atorvastatin]
Span: 1.66
Volume Mean (10 μm pores): 10.24 μm
D10 [1]: 4.38 μm
D50 [1]: 8.78 μm
D90 [1]: 18.92 μm
